The assay relates to M. tuberculosis H37Rv growth inhibition. Put plainly: M. tuberculosis H37Rv growth inhibitors, H37Rv strain (AID 1626). The settings on record: for IC90: measured here: IC90 against H37Rv; for CC50: measured here: Vero cell cytotoxicity.

SMILES strings stand for the structures. pIC50: −log10 of the molar value. Where only a bound is given, the exact number is not on record here.

As a reminder, the pIC50 is the negative decadic logarithm of the IC50, by convention in mol/L. As a reminder, the IC90 is the concentration needed for an effect of 90%. A lower IC90 goes with an effect from little substance. Turning to `O=C(COC(=O)c1cccs1)c1ccc2c(c1)OCCO2`, the pIC50 was 5.06 and the IC90 came out at 19.2 µM.

Regarding `N#Cc1c(SCC(N)=O)nsc1SCc1ccccc1Cl`, the pIC50 is 4.92 and the IC90 turned out to be 14.5 µM.

What is called CC50 is the concentration that lowers cell viability or growth by half. In the case of `COc1cnc(-c2ccccn2)nc1Oc1ccc(F)cc1F`, the pIC50 is 4.72, the IC90 was over 100 µM and the CC50 is over 40 µM.

For the compound `CN(CCCC[C@H](CNCc1ccc(-c2ccccc2)cc1)N1C[C@H](c2ccccc2)N(CCc2ccc(Cl)c(Cl)c2)C(=O)C1=O)Cc1ccc(-c2ccccc2)cc1`, the pIC50 is 5.30, the IC90 amounted to 5.61 µM and the CC50 amounted to 6.12 µM.

Compound `CCOc1ccc2nc(NC(=O)CSc3nc(-c4ccccc4)c(C#N)c(=O)[nH]3)sc2c1` displayed an IC90 of over 100 µM.

As to `Cc1ccc(OCCCc2c(C)n[nH]c2C)cc1`, the pIC50 is 4.78 and the IC90 was over 100 µM.

In the case of `Nc1ccc(C(=O)c2cccs2)cc1`, the negative-log IC50 (pIC50) is 4.66 and the concentration for an effect of 90% (IC90) was over 100 µM.

On to `Cc1nc(SCC(=O)Nc2ccc(OCc3ccccc3)cc2)n[nH]1`, for which the pIC50 was 6.39 and the IC90 was over 100 µM.

For `COc1ccc(Cn2c(SCc3ccc(C)cc3)nc3cc(OC)c(OC)cc3c2=N)cc1Cl`, the pIC50 is 5.60, the IC90 came to 3.09 µM and the CC50 amounted to 3.1 µM.

Turning to `Cc1c(C(=O)N2CCCCC2)sc(NC(=O)C23CC4CC(CC(C4)C2)C3)c1C#N`, the pIC50 was 4.39 and the IC90 was over 100 µM.

In the case of `COc1ccc(C[C@H]2CN3C(=NC[C@@H]3Cc3ccccc3)N2CCNC(=O)CCC2CCCCC2)cc1`, the pIC50 was 5.04, the 90% effect concentration (IC90) is 11.6 µM and the cytotoxic concentration (CC50) worked out at 17.7 µM.

As to `Cc1ccc(Cc2cnc(NC(=O)C3=NCCN3)s2)cc1`, the pIC50 is 5.68 and the IC90 worked out at 7.96 µM.

For `COc1ccc(-c2noc(CCC(=O)Nc3ccc(C)c(C)c3)n2)cc1`, the pIC50 was 4.65 and the IC90 was over 100 µM.

On to `CCC(=C(c1ccc(OC)cc1)c1ccc(OC)cc1)c1cn(CC(O)CN(CCO)CCO)c2ccccc12` (stereo not given), for which the negative logarithm of the IC50 (pIC50) is 4.90, the IC90 is 13.6 µM and the 50% cytotoxic concentration (CC50) stood at 26.5 µM.

For the compound `c1ccc(-c2nc(NCC3CCCO3)c3ccccc3n2)nc1` (stereo not given), the pIC50 was 5.51, the IC90 came out at 3.21 µM and the CC50 is over 40 µM.

In the case of `O=C(Cc1cccs1)Nc1cccc(-c2nc3cc4ccccc4cc3[nH]2)c1`, the pIC50 is 4.81, the 90% effect concentration (IC90) was determined as 24.3 µM and the CC50 is 21 µM.

As to `Cc1cc(=O)oc2ccc(OC(=O)CC(C)C)cc12`, the IC90 is over 100 µM.

Turning to `COC(=O)COc1ccc2c(=O)c(Oc3ccccc3)c(C)oc2c1`, the pIC50 was 5.67 and the IC90 came to 10 µM.

As for `O=C(/C=C/c1cn(CC(O)CN2CCCCC2)c2ccccc12)c1ccccc1` (stereo not given), the pIC50 is 5.53, the IC90 amounted to 3.34 µM and the CC50 turned out to be 29.5 µM.

Turning to `O=[N+]([O-])c1cc(/C=N/N/C(=N/c2ccccn2)c2ccccn2)ccc1O`, the pIC50 was 4.75, the IC90 was over 100 µM and the CC50 was 26.8 µM.

For the compound `CCn1c(NC(=O)c2nn(C)cc2Br)nc2ccccc21`, the pIC50 is 5.18, the concentration for an effect of 90% (IC90) was found to be 13.2 µM and the CC50 is over 40 µM.

In the case of `Nc1c2c(nc3ccn(Cc4ccccc4)c(=O)c13)CCC2`, the pIC50 is 5.15, the IC90 is 15.3 µM and the CC50 was over 40 µM.

In the case of `COC(=O)CC(=O)N1CCN(c2ccc(Cl)c(Cl)c2)CC1`, the pIC50 was 4.92 and the IC90 stood at 25.2 µM.

Take `COc1cc(CNc2ccc3c(c2)CCC3)cc(OC)c1O`: the negative logarithm of the IC50 (pIC50) is 4.33 and the IC90 was over 100 µM.

As for `O=C(c1ccc(Cl)cc1)C1CCCN(Cc2cnn(-c3ccccc3)c2)C1` (stereo not given), the pIC50 was 5.06 and the IC90 was determined as 11.5 µM.

`Cc1nn(-c2ccccc2)c(Cl)c1/C=N/O`: the concentration for an effect of 90% (IC90) was over 100 µM.

On to `Cc1ccc(-c2csc(NC(=O)C[n+]3cc(-c4ccc(C)cc4)n4c3CCC4)n2)cc1`, for which the negative logarithm of the IC50 (pIC50) is 4.95 and the IC90 amounted to 12.6 µM.

As to `COc1cc(/C=N/NC(=Nc2ccc(C)cc2)c2nc3ccccc3s2)ccc1O`, the IC90 is over 100 µM and the CC50 is over 40 µM.

Take `CCCCCOc1ccc(Br)cc1CSC(=N)N`: the pIC50 was 5.03, the IC90 is 12 µM and the CC50 was found to be 14.8 µM.

Regarding `CCC(=O)Nc1nc2ccccc2n1Cc1ccc(C)cc1`, the pIC50 was 5.86, the IC90 was found to be 11 µM and the CC50 was over 40 µM.

For `CN1c2ccc([N+](=O)[O-])cc2CC2(C(=O)NC(=O)N(c3ccc(Br)cc3)C2=O)C1c1ccccc1` (stereo not given), the negative-log IC50 (pIC50) was 6.02, the IC90 is over 100 µM and the 50% cytotoxic concentration (CC50) is over 40 µM.

For `COC(=O)CSc1nc2c(c(-c3ccc(C)o3)c1C#N)CCCC2`, the pIC50 is 5.58 and the IC90 was 3.47 µM.

`O=S1(=O)CCC(N=Cc2ccc(-c3ccc(Cl)cc3)o2)C1` (stereo not given): the pIC50 was 5.18 and the IC90 was over 100 µM.

For `COc1ccc(C2(O)CC3CCC(C2)N3c2cc(C)nc(-c3ccccc3)n2)cc1` (stereo not given), the pIC50 is 4.76, the IC90 came out at 23.9 µM and the CC50 was over 40 µM.

Take `Cc1[nH]n(C2=NCCS2)c(=O)c1N=Nc1cccc(C(F)(F)F)c1`: the pIC50 was 6.41, the IC90 was 1.47 µM and the 50% cytotoxic concentration (CC50) was determined as 9.46 µM.

As for `O=C(NC1=NCCS1)c1ccc(-c2ccc(Cl)cc2)o1`, the negative logarithm of the IC50 (pIC50) was 4.55 and the IC90 is over 100 µM.

In turn, `COc1cc(-c2cc(C(=O)Nc3nc4ccccc4s3)c3ccccc3n2)cc(OC)c1OC` showed an IC90 of over 100 µM and a CC50 of over 40 µM.

For `N=c1c2c(-c3ccccc3)c(-c3ccccc3)n(Cc3ccco3)c2ncn1Cc1ccccc1`, the pIC50 is 5.56, the IC90 is 3.17 µM and the CC50 was 6.49 µM.

As to `Cc1cc(NC(=O)c2sccc2C)n(-c2nc3ccccc3[nH]2)n1`, the pIC50 was over 6.41, the IC90 turned out to be 18.1 µM and the CC50 is 31.2 µM.

Consider `CN1CCN(CCCNC(=O)c2ccc(/C=C3\Sc4ccccc4N(Cc4ccc(F)cc4)C3=O)cc2)CC1`, for which the pIC50 is 5.20, the IC90 came out at 11.3 µM and the CC50 stood at 12.5 µM.

Turning to `O=C1c2ccccc2C(=O)N1CCCCN(C(=O)c1cc([N+](=O)[O-])cc([N+](=O)[O-])c1)c1ccc(Cl)cc1`, the negative logarithm of the IC50 (pIC50) was 5.91 and the IC90 worked out at 1.65 µM.

Take `O/N=C/c1ccc(-c2cc(Cl)ccc2Cl)o1`: the IC90 is over 100 µM.

Take `CCOC(=O)c1cc(C)nc(Sc2ccc(C)cc2)c1C#N`: the pIC50 was 4.89, the IC90 was over 100 µM and the CC50 is over 40 µM.

Turning to `O=C(Nc1ccc2c(c1)OCCO2)c1cccc2nc3ccccc3nc12`, the pIC50 is over 6.71, the concentration for an effect of 90% (IC90) came to 2.17 µM and the half-maximal cytotoxic concentration (CC50) was over 40 µM.

Consider `COC(=O)CSc1nc2ccc(NC(=O)c3ccccc3C(=O)N3CCOCC3)cc2s1`, for which the pIC50 was 5.05 and the IC90 was over 100 µM.

`O=C(CNC(=O)/C(=C\c1ccc(Br)cc1)NC(=O)c1ccccc1)OCc1ccccc1`: the pIC50 was 5.72, the IC90 was determined as 3.33 µM and the cytotoxic concentration (CC50) stood at 13 µM.

On to `COC(=O)CSc1ncnc2c1sc1nc3c(cc12)COC(C)(C)C3`, for which the pIC50 is 5.51 and the IC90 is 10 µM.

For the compound `Cc1ccc(Nc2c(-c3ccccn3)nc3ccc(C)cn23)cc1`, the negative-log IC50 (pIC50) was 5.84, the concentration for an effect of 90% (IC90) was found to be 1.63 µM and the CC50 turned out to be 1.54 µM.

In the case of `C=CCOc1ccc(C=Nc2ccc(OC)cc2)c(O)c1`, the IC90 was over 100 µM.

`COc1cc(N=c2c([N+](=O)[O-])nn(-c3ccc4c(c3)OCCO4)n2O)cc(OC)c1` had a CC50 of 16.2 µM.

As to `COc1cc(CNC(C)c2ccccc2)cc(Cl)c1OCC(=O)Nc1ccccc1` (stereo not given), the pIC50 was 5.51, the IC90 was determined as 3.39 µM and the CC50 is over 40 µM.

`CCOC(=O)c1ccc(N/C=C2/CCCC(C)C2=O)cc1` (stereo not given): the pIC50 is 4.96 and the IC90 was over 100 µM.

Turning to `CCCCc1ccc(C2C3=C(CC(C)(C)CC3=O)NC3=C2C(=O)c2ccccc23)cc1` (stereo not given), the pIC50 was 5.51, the IC90 was over 100 µM and the CC50 is over 40 µM.

As to `CCOC(=O)c1ccc(Nc2cc3ccccc3c(=O)[nH]2)cc1`, the pIC50 was 4.87 and the IC90 was over 100 µM.

Take `Cc1cccc(Oc2ccc(N)cc2)c1`: the IC90 is over 100 µM.

As for `CC(=O)Nc1nc(-c2cc([N+](=O)[O-])cs2)cs1`, the pIC50 is over 6.71 and the IC90 is over 100 µM.

For the compound `COC(=O)c1c(NC(=O)CC2SC(N)=NC2=O)sc2c1CCC(C(C)(C)C)C2` (stereo not given), the pIC50 was 4.78, the IC90 turned out to be 24 µM and the CC50 was 35 µM.

For `O=Cc1ccc2oc3nc4n(c(=O)c3c(=O)c2c1)CCCS4`, the pIC50 is 6.36 and the IC90 turned out to be 1.24 µM.

In the case of `CCc1cccc2c(C(=O)COC(=O)c3ccc([N+](=O)[O-])s3)c[nH]c12`, the pIC50 is over 6.71, the IC90 stood at 0.99 µM and the CC50 was over 40 µM.

Consider `Cn1c(NCc2ccccc2)nc2c1c(=O)n(Cc1ccc(Br)cc1)c(=O)n2C`, for which the pIC50 is 4.86, the IC90 is over 100 µM and the CC50 is over 40 µM.

Consider `COc1cccc(C(=O)Nc2ccc3nc(N4CCN(c5ncccn5)CC4)cc(C)c3c2)c1OC`, for which the pIC50 is over 6.71, the IC90 is 1.72 µM and the CC50 stood at 15.2 µM.

On to `CC1CC1C(=O)Nc1ccc(-c2ccccc2)cc1` (stereo not given), for which the negative-log IC50 (pIC50) was 6.51 and the IC90 was over 100 µM.

On to `CC(C)(C)c1cc(NCCCn2ccnc2)n2ncc(-c3ccccc3)c2n1`, for which the pIC50 was 5.75, the IC90 was 2.89 µM and the CC50 turned out to be 15.9 µM.

On to `O=C(Oc1ccc(Cl)c2cccnc12)C12CC3CC(CC(C3)C1)C2`, for which the negative-log IC50 (pIC50) is 5.34, the IC90 is 5.77 µM and the CC50 was over 40 µM.

As to `COc1ccccc1C(=O)OCC(=O)Nc1ccc(Cl)cn1`, the negative-log IC50 (pIC50) is 4.65, the IC90 is over 100 µM and the CC50 is over 40 µM.
